The record followed here is ChEMBL document CHEMBL1150494, “Inhibitory effect on HT-1080 tumor cell invasion in vitro using 9-(2-hydroxyethyl)adenine 2-phosphates” (1997).

Assay [1] relates to HT-1080. The experiment in a line: In vitro inhibitory activity against HT1080 tumor cell invasion using Matrigel (MG) at a concentration of 100 uM. It counts as functional, Homo sapiens.
The target of assay [2] is Matrix metalloproteinase-9 (Homo sapiens) (UniProt P14780). Put plainly: Inhibition of collagen IV degradation by matrix metalloprotease-9 at 100 uM.
Sequence of Matrix metalloproteinase-9 (Homo sapiens) (P14780 whole entry): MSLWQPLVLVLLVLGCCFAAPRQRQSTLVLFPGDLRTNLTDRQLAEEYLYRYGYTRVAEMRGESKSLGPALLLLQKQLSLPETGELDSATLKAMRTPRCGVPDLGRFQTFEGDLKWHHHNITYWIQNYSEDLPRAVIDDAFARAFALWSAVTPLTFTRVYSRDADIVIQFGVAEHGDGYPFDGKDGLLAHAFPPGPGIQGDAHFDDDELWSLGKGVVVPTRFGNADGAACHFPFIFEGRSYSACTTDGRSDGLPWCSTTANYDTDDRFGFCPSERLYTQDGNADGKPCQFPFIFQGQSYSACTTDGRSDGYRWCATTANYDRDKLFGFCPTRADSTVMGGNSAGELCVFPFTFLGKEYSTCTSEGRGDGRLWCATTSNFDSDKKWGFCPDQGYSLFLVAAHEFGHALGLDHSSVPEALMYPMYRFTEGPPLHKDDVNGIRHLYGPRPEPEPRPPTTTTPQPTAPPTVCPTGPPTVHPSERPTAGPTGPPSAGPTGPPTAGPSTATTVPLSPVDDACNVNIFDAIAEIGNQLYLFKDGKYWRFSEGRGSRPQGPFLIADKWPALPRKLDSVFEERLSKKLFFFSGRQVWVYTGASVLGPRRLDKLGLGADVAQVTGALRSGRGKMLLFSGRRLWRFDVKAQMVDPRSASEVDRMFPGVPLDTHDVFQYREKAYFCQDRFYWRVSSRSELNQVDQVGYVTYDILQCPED
Assay [3] shares this target. Put plainly: Inhibition of collagen IV degradation by matrix metalloprotease-9 at 10 uM.
Assay [4] relates to HT-1080. Put plainly: In vitro inhibitory activity against HT1080 tumor cell invasion using Matrigel (MG) at a concentration of 10 uM. In kind it is functional, Homo sapiens.

With `Nc1ncnc2c1nc(Br)n2CCOP(=O)(O)O`, the Inhibition ratio with HT-1080 [1] was roughly 41%; in assay [2], 41%; in assay [3], 23%; with HT-1080 [4] it was roughly 23%.

For `O=P(O)(O)OCCn1cnc2c(Cl)ncnc21`, the figures for the Inhibition ratio (in the assay on HT-1080 [1]; in assay [2]) were roughly 12% and 12%, respectively.

As to `Nc1ncnc2c1ncn2CCO`, the Inhibition ratio with HT-1080 [1] was roughly 50%; in assay [2], 18%; in assay [3] it was 2%; with HT-1080 [4], roughly 2%.

For `CNc1ncnc2c1ncn2CCOP(=O)(O)O`, the Inhibition ratio in the assay with HT-1080 [1] was roughly 54%; in assay [2], 55%; in assay [3] it was 46%; with HT-1080 [4] it was roughly 46%.

In the case of `Nc1ncnc2c1ncn2CCOP(=O)(O)OP(=O)(O)OP(=O)(O)O`, the Inhibition ratio is roughly 36% with HT-1080 [1], 69% in assay [2], 53% in assay [3] and roughly 35% in the assay with HT-1080 [4].

With `Nc1ncnc2c1ncn2CCOP(=O)(O)O`, the Inhibition ratio in the assay on HT-1080 [1] is 53%; in assay [2] it was 57%; in assay [3], 32%; in the assay with HT-1080 [4] it was 46%.
